Results: US11053204B2, “Pyrimidinyloxy benzene derivatives as herbicides” (FMC Corporation, priority 2015, dated 2021)

Columns and labels:
Format in all cases: in vivo
[1] = system: Italian ryegrass (Lolium multiflorum); experiment: Test A preemergence, visual injury rating; details: for Ryegrass, Italian plant response rating: 0 to 100 scale (0 no effect, 100 complete control); for Plant response rating, Ryegrass, Italian: 31 g ai/ha, 0 to 100 scale, 0 no effect, 100 complete control
Method in brief: (§1)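 Visual 0–100 rating (100 = complete control) taken about 10 d post-treatment relative to untreated checks. Preemergence: directed soil spray on sown loam/sand pots. Postemergence: seedlings 2–10 cm, 1–2 leaf. Non-phytotoxic solvent formulation with surfactant.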

[2] = system: barnyardgrass (Echinochloa crus-galli); experiment: Test A preemergence, visual injury rating; details: for Barnyardgrass plant response rating: 0 to 100 scale (0 no effect, 100 complete control); for Plant response rating, Barnyardgrass: 31 g ai/ha, 0 to 100 scale, 0 no effect, 100 complete control
Method in brief: as §1

[3] = system: giant foxtail (Setaria faberii); experiment: Test A preemergence, visual injury rating; details: for Foxtail, Giant plant response rating: 0 to 100 scale (0 no effect, 100 complete control); for Plant response rating, Foxtail, Giant: 31 g ai/ha, 0 to 100 scale, 0 no effect, 100 complete control
Method in brief: as §1

[4] = system: kochia (Kochia scoparia); experiment: Test A preemergence, visual injury rating; details: for Kochia plant response rating: 0 to 100 scale (0 no effect, 100 complete control); for Plant response rating, Kochia: 31 g ai/ha, 0 to 100 scale, 0 no effect, 100 complete control
Method in brief: as §1

[5] = system: pigweed (Amaranthus retroflexus); experiment: Test A preemergence, visual injury rating; details: for Pigweed plant response rating: 0 to 100 scale (0 no effect, 100 complete control); for Plant response rating, Pigweed: 31 g ai/ha, 0 to 100 scale, 0 no effect, 100 complete control
Method in brief: as §1

[6] = system: ragweed (common ragweed, Ambrosia elatior); experiment: Test A preemergence, visual injury rating; details: for Ragweed plant response rating: 0 to 100 scale (0 no effect, 100 complete control); for Plant response rating, Ragweed: 31 g ai/ha, 0 to 100 scale, 0 no effect, 100 complete control
Method in brief: as §1

[7] = system: Italian ryegrass (Lolium multiflorum); experiment: Test A postemergence, visual injury rating; details: 0 is no effect, 100 is complete control; for Ryegrass, Italian plant response rating: 31 g ai/ha, 0 to 100 scale, approximately 10 days
Method in brief: as §1

[8] = system: barnyardgrass (Echinochloa crus-galli); experiment: Test A postemergence, visual injury rating; details: 0 is no effect, 100 is complete control; for Barnyardgrass plant response rating: 31 g ai/ha, 0 to 100 scale, approximately 10 days
Method in brief: as §1

[9] = system: blackgrass (Alopecurus myosuroides); experiment: Test A postemergence, visual injury rating; details: 0 is no effect, 100 is complete control; for Blackgrass plant response rating: 31 g ai/ha, 0 to 100 scale, approximately 10 days
Method in brief: as §1

[10] = system: corn (Zea mays); experiment: Test A postemergence, visual injury rating; details: 0 is no effect, 100 is complete control; for Corn plant response rating: 31 g ai/ha, 0 to 100 scale, approximately 10 days
Method in brief: as §1

[11] = system: galium (catchweed bedstraw, Galium aparine); experiment: Test A postemergence, visual injury rating; details: 0 is no effect, 100 is complete control; for Galium plant response rating: 31 g ai/ha, 0 to 100 scale, approximately 10 days
Method in brief: as §1

[12] = system: giant foxtail (Setaria faberii); experiment: Test A postemergence, visual injury rating; details: 0 is no effect, 100 is complete control; for Foxtail, Giant plant response rating: 31 g ai/ha, 0 to 100 scale, approximately 10 days
Method in brief: as §1

[13] = system: kochia (Kochia scoparia); experiment: Test A postemergence, visual injury rating; details: 0 is no effect, 100 is complete control; for Kochia plant response rating: 31 g ai/ha, 0 to 100 scale, approximately 10 days
Method in brief: as §1

[14] = system: pigweed (Amaranthus retroflexus); experiment: Test A postemergence, visual injury rating; details: 0 is no effect, 100 is complete control; for Pigweed plant response rating: 31 g ai/ha, 0 to 100 scale, approximately 10 days
Method in brief: as §1

[15] = system: ragweed (common ragweed, Ambrosia elatior); experiment: Test A postemergence, visual injury rating; details: 0 is no effect, 100 is complete control; for Ragweed plant response rating: 31 g ai/ha, 0 to 100 scale, approximately 10 days
Method in brief: as §1

[16] = system: wheat (Triticum aestivum); experiment: Test A postemergence, visual injury rating; details: 0 is no effect, 100 is complete control; for Wheat plant response rating: 31 g ai/ha, 0 to 100 scale, approximately 10 days
Method in brief: as §1

[17] = system: barnyardgrass (Echinochloa crus-galli); experiment: Test B flooded paddy test, plant response rating; details: 250 g ai/ha; Flood; scale of 0 to 100 where 0 is no effect and 100 is complete control; 13 to 15 days
Method in brief: (§2)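 Test compounds are applied straight into paddy water held 3 cm above the soil surface, with that flood maintained for the whole test. After 13 to 15 days in the greenhouse, each species is scored visually relative to controls.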

[18] = system: ducksalad (Heteranthera limosa); experiment: Test B flooded paddy test, plant response rating; details: 250 g ai/ha; Flood; scale of 0 to 100 where 0 is no effect and 100 is complete control; 13 to 15 days
Method in brief: as §2

[19] = system: rice (Oryza sativa); experiment: Test B flooded paddy test, plant response rating; details: 250 g ai/ha; Flood; scale of 0 to 100 where 0 is no effect and 100 is complete control; 13 to 15 days
Method in brief: as §2

[20] = system: sedge, umbrella (small-flower umbrella sedge, Cyperus difformis); experiment: Test B flooded paddy test, plant response rating; details: 250 g ai/ha; Flood; scale of 0 to 100 where 0 is no effect and 100 is complete control; 13 to 15 days
Method in brief: as §2

| SMILES | Ryegrass, Italian plant response rating ([1]; 125 g ai/ha) | Barnyardgrass plant response rating ([2]; 125 g ai/ha) | Foxtail, Giant plant response rating ([3]; 125 g ai/ha) | Kochia plant response rating ([4]; 125 g ai/ha) | Pigweed plant response rating ([5]; 125 g ai/ha) | Ragweed plant response rating ([6]; 125 g ai/ha) | Ryegrass, Italian plant response rating (0 to 100 scale) ([7]; 125 g ai/ha) | Barnyardgrass plant response rating (0 to 100 scale) ([8]; 125 g ai/ha) | Blackgrass plant response rating (0 to 100 scale) ([9]; 125 g ai/ha) | Corn plant response rating (0 to 100 scale) ([10]; 125 g ai/ha) | Galium plant response rating (0 to 100 scale) ([11]; 125 g ai/ha) | Foxtail, Giant plant response rating (0 to 100 scale) ([12]; 125 g ai/ha) | Kochia plant response rating (0 to 100 scale) ([13]; 125 g ai/ha) | Pigweed plant response rating (0 to 100 scale) ([14]; 125 g ai/ha) | Ragweed plant response rating (0 to 100 scale) ([15]; 125 g ai/ha) | Wheat plant response rating (0 to 100 scale) ([16]; 125 g ai/ha) | Plant response rating, Barnyardgrass [17] | Plant response rating, Ducksalad [18] | Plant response rating, Rice [19] | Plant response rating, Sedge, Umbrella [20] | further results |
| --- | --- | --- | --- | --- | --- | --- | --- | --- | --- | --- | --- | --- | --- | --- | --- | --- | --- | --- | --- | --- | --- |
| N#CCOC(=O)c1c(F)cccc1Oc1ncc(Cl)cn1 [Compound 49] | 0 | 0 | 0 | 0 | 0 | 0 | 0 | 0 | 0 | 0 | 0 | 0 | 0 | 0 | 0 | 0 | 20 | 0 | 20 | 0 | Ryegrass, Italian plant response rating ([1]; 500 g ai/ha): 0; Barnyardgrass plant response rating ([2]; 500 g ai/ha): 0; Foxtail, Giant plant response rating ([3]; 500 g ai/ha): 0; Kochia plant response rating ([4]; 500 g ai/ha): 0; Pigweed plant response rating ([5]; 500 g ai/ha): 0; Ragweed plant response rating ([6]; 500 g ai/ha): 0; Ryegrass, Italian plant response rating (0 to 100 scale) ([7]; 500 g ai/ha): 0; Barnyardgrass plant response rating (0 to 100 scale) ([8]; 500 g ai/ha): 0; Blackgrass plant response rating (0 to 100 scale) ([9]; 500 g ai/ha): 0; Corn plant response rating (0 to 100 scale) ([10]; 500 g ai/ha): 0; Galium plant response rating (0 to 100 scale) ([11]; 500 g ai/ha): 0; Foxtail, Giant plant response rating (0 to 100 scale) ([12]; 500 g ai/ha): 0; Kochia plant response rating (0 to 100 scale) ([13]; 500 g ai/ha): 0; Pigweed plant response rating (0 to 100 scale) ([14]; 500 g ai/ha): 0; Ragweed plant response rating (0 to 100 scale) ([15]; 500 g ai/ha): 0; Wheat plant response rating (0 to 100 scale) ([16]; 500 g ai/ha): 0 |
| O=C(OC/C=C/C(F)(F)F)c1c(Br)cccc1Oc1ncc(Cl)cn1 [Compound 50] | 0 | 10 | 100 | 0 | 90 | 0 | 20 | 20 | 20 | 10 | 90 | 70 | 90 | 100 | 0 | 0 | 0 | 65 | 0 | 80 | Plant response rating, Ryegrass, Italian [1]: 0; Plant response rating, Barnyardgrass [2]: 0; Plant response rating, Foxtail, Giant [3]: 50; Plant response rating, Kochia [4]: 0; Plant response rating, Pigweed [5]: 0; Plant response rating, Ragweed [6]: 0; Ryegrass, Italian plant response rating [7]: 0; Barnyardgrass plant response rating [8]: 0; Blackgrass plant response rating [9]: 0; Corn plant response rating [10]: 10; Galium plant response rating [11]: 60; Foxtail, Giant plant response rating [12]: 20; Kochia plant response rating [13]: 60; Pigweed plant response rating [14]: 80; Ragweed plant response rating [15]: 0; Wheat plant response rating [16]: 0 |
| COc1cccc(Oc2ncc(Cl)cn2)c1C(C)=O [Compound 51] | 0 | 0 | 0 | 0 | 0 | 0 | 0 | 0 | 0 | 0 | 10 | 0 | 0 | 0 | 0 | 0 | 15 | 0 | 15 | 0 | Plant response rating, Ryegrass, Italian [1]: 0; Plant response rating, Barnyardgrass [2]: 0; Plant response rating, Foxtail, Giant [3]: 0; Plant response rating, Kochia [4]: 0; Plant response rating, Pigweed [5]: 0; Plant response rating, Ragweed [6]: 0; Ryegrass, Italian plant response rating [7]: 0; Barnyardgrass plant response rating [8]: 0; Blackgrass plant response rating [9]: 0; Corn plant response rating [10]: 0; Galium plant response rating [11]: 0; Foxtail, Giant plant response rating [12]: 0; Kochia plant response rating [13]: 0; Pigweed plant response rating [14]: 0; Ragweed plant response rating [15]: 0; Wheat plant response rating [16]: 0 |
